These results are taken from patent publication US11078202B2, “β-lactamase inhibitor and use thereof” (priority 2018, dated 2021).

Structures are written as SMILES. Where a name gives a salt, the structure may show the parent alone.

Holding throughout (assay type): cell-based
In assay [1] the test system is Klebsiella pneumoniae XNWB 0003. Description: MIC assay of test compounds combined with imipenem (4 μg/mL). Particulars: imipenem 4 μg/mL fixed. The method in brief: (§1)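 MIC values are the lowest concentrations of test compound that inhibited visible growth, read per CLSI after 16-20 h at 35±2 °C in CAMHB microdilution plates with the companion antibiotic held constant. Bacteria came from TSA cultures adjusted to OD600 0.1-0.15 and diluted 300-fold.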

Assay [2] has as its system Klebsiella pneumoniae XNWB 0002. Described as above. Particulars: imipenem 4 μg/mL fixed. Summed up:
as §1

Assay [3] has as its system Acinetobacter baumannii XNWB 0007. The assay is described as above. Particulars: imipenem 4 μg/mL fixed. Summed up:
as §1

Assay [4] deals with Pseudomonas aeruginosa XNWB 0008. The assay is described as above. Particulars: imipenem 4 μg/mL fixed. The method in brief:
as §1

Assay [5] deals with Klebsiella pneumoniae XNWB 0005. The description is as above. Particulars: imipenem 4 μg/mL fixed. The method in brief: as §1
The test system of assay [6] is Klebsiella pneumoniae XNWB 0001. The assay is described as above. The note with it: imipenem 4 μg/mL fixed. Summed up:
as §1

The test system of assay [7] is Klebsiella pneumoniae XNWB 0004. The assay is described as above. Particulars: imipenem 4 μg/mL fixed. Summed up:
as §1

Assay [8] concerns Klebsiella pneumoniae XNWB 0006. The description is as above. Particulars: imipenem 4 μg/mL fixed. Summed up:
as §1

For assay [9], the system named is Klebsiella pneumoniae XNWB 0003. Description: MIC assay of test compounds combined with ceftazidime (8 μg/mL). The note with it: ceftazidime 8 μg/mL fixed. The method in brief: as §1
In assay [10] the test system is Klebsiella pneumoniae XNWB 0002. The assay is described as above. The note with it: ceftazidime 8 μg/mL fixed. The method in brief: as §1
The subject of assay [11] is Acinetobacter baumannii XNWB 0007. The description is as above. The note with it: ceftazidime 8 μg/mL fixed. Summed up: as §1
In assay [12] the test system is Pseudomonas aeruginosa XNWB 0008. The description is as above. The note with it: ceftazidime 8 μg/mL fixed. The method in brief:
as §1

Assay [13] deals with Klebsiella pneumoniae XNWB 0005. The assay is described as above. The note with it: ceftazidime 8 μg/mL fixed. Summed up:
as §1

The subject of assay [14] is Klebsiella pneumoniae XNWB 0001. The description is as above. Particulars: ceftazidime 8 μg/mL fixed. The method in brief: as §1
The subject of assay [15] is Klebsiella pneumoniae XNWB 0004. The description is as above. Particulars: ceftazidime 8 μg/mL fixed. The method in brief: as §1
For assay [16], the system named is Klebsiella pneumoniae XNWB 0006. The assay is described as above. The note with it: ceftazidime 8 μg/mL fixed. Summed up: as §1

For `O=C1N2C[C@H](N1OS(=O)(=O)O)C1(CC1)C[C@H]2c1cc(COC2CNC2)on1` [Example 50, (1R,4S)-4-(5-((azetidin-3-yloxy)methyl)isoxazol-3-yl)-6-oxo-5,7-diazaspiro[bicycle [3.2.1]octane-2,1′-cyclopropan]-7-yl sulfate], the “The minimum concentration of test compounds combined with imipenem (4 μg/mL) for bacteriostasis” value in [1] is listed as “A (A: <8 μg/mL)”; in assay [2] it was “A (A: <8 μg/mL)”; in assay [3], “C (C: 16-128 μg/mL)”; in [4], “A (A: <8 μg/mL)”; in assay [5], “A (A: <8 μg/mL)”; in [6] it was “A (A: <8 μg/mL)”. Besides, the “The minimum concentration of test compounds combined with imipenem (4 μg/mL) for bacteriostasis” value in assay [7] and in assay [8] was “A (A: <8 μg/mL)” throughout. The “The minimum concentration of test compounds combined with ceftazidime (8 μg/mL) for bacteriostasis” value in assay [9] is reported as “A (A: <8 μg/mL)”; in assay [10] it was “A (A: <8 μg/mL)”; in [11] it was “C (C: 16-128 μg/mL)”; in assay [12] it was “B (B: 8-16 μg/mL)”; in [13], “A (A: <8 μg/mL)”; in assay [14], “A (A: <8 μg/mL)”. Besides, the “The minimum concentration of test compounds combined with ceftazidime (8 μg/mL) for bacteriostasis” value in assay [15] was “B (B: 8-16 μg/mL)”; in assay [16], “A (A: <8 μg/mL)”.
Consider `N[C@H]1C[C@H](c2cc([C@@H]3CC4(CC4)[C@@H]4CN3C(=O)N4OS(=O)(=O)O)no2)C1` [Example 25, (1R,4S)-4-(5-((1S,3S)-3-aminocyclobutyl)isoxazol-3-yl)-6-oxo-5,7-diazaspiro[bicycle [3.2.1]octane-2,1′-cyclopropan]-7-yl sulfate], for which the “The minimum concentration of test compounds combined with imipenem (4 μg/mL) for bacteriostasis” value in [1] was “A (A: <8 μg/mL)”; in assay [2] it was “A (A: <8 μg/mL)”; in [3], “C (C: 16-128 μg/mL)”; in assay [4] it was “A (A: <8 μg/mL)”; in [5] it was “A (A: <8 μg/mL)”; in assay [6], “A (A: <8 μg/mL)”. Also, the “The minimum concentration of test compounds combined with imipenem (4 μg/mL) for bacteriostasis” value in assay [7] and in assay [8] was “A (A: <8 μg/mL)” each time. Further, the “The minimum concentration of test compounds combined with ceftazidime (8 μg/mL) for bacteriostasis” value is given as “A (A: <8 μg/mL)” in assay [9]; “A (A: <8 μg/mL)” in assay [10]; “C (C: 16-128 μg/mL)” in assay [11]; “B (B: 8-16 μg/mL)” in [12]; “A (A: <8 μg/mL)” in [13]; “A (A: <8 μg/mL)” in [14]. Besides, the “The minimum concentration of test compounds combined with ceftazidime (8 μg/mL) for bacteriostasis” value is recorded as “B (B: 8-16 μg/mL)” in [15] and “A (A: <8 μg/mL)” in [16].
Turning to `CNCCc1cc([C@@H]2CC3(CC3)[C@@H]3CN2C(=O)N3OS(=O)(=O)O)no1` [Example 42, (1R,4S)-4-(5-(2-(methylamino)ethyl)isoxazol-3-yl)-6-oxo-5,7-diazaspiro[bicycle[3.2.1]octane-2,1′-cyclopropan]-7-yl sulfate], the “The minimum concentration of test compounds combined with imipenem (4 μg/mL) for bacteriostasis” value in assay [1] was “A (A: <8 μg/mL)”; in [2], “A (A: <8 μg/mL)”; in [3] it was “C (C: 16-128 μg/mL)”; in [4], “B (B: 8-16 μg/mL)”; in assay [5] it was “A (A: <8 μg/mL)”; in [6] it was “A (A: <8 μg/mL)”. Further, the “The minimum concentration of test compounds combined with imipenem (4 μg/mL) for bacteriostasis” value in assay [7] and in [8] was “A (A: <8 μg/mL)” each time. In addition, the “The minimum concentration of test compounds combined with ceftazidime (8 μg/mL) for bacteriostasis” value in assay [9] is on record as “A (A: <8 μg/mL)”; in [10] it was “A (A: <8 μg/mL)”; in assay [11], “C (C: 16-128 μg/mL)”; in assay [12], “C (C: 16-128 μg/mL)”; in [13], “A (A: <8 μg/mL)”; in [14], “A (A: <8 μg/mL)”. Moreover, the “The minimum concentration of test compounds combined with ceftazidime (8 μg/mL) for bacteriostasis” value in [15] was “B (B: 8-16 μg/mL)”; in assay [16], “A (A: <8 μg/mL)”.
`N=C(N)NC[C@H](O)c1cc([C@@H]2CC3(CC3)[C@@H]3CN2C(=O)N3OS(=O)(=O)O)no1` [Example 39, (1R,4S)-4-(5-((S)-2-guanidyl-1-hydroxyethyl)isoxazol-3-yl)-6-oxo-5,7-diazaspiro [bicyclo[3.2.1]octane-2,1′-cyclopropan]-7-yl sulfate]: the “The minimum concentration of test compounds combined with imipenem (4 μg/mL) for bacteriostasis” value is recorded as “A (A: <8 μg/mL)” in assay [1]; “A (A: <8 μg/mL)” in assay [2]; “B (B: 8-16 μg/mL)” in [3]; “A (A: <8 μg/mL)” in assay [4]; “A (A: <8 μg/mL)” in assay [5]; “A (A: <8 μg/mL)” in assay [6]. Besides, the “The minimum concentration of test compounds combined with imipenem (4 μg/mL) for bacteriostasis” value in assay [7] and in assay [8] was “A (A: <8 μg/mL)” in each case. Besides, the “The minimum concentration of test compounds combined with ceftazidime (8 μg/mL) for bacteriostasis” value is “A (A: <8 μg/mL)” in [9]; “A (A: <8 μg/mL)” in assay [10]; “C (C: 16-128 μg/mL)” in assay [11]; “B (B: 8-16 μg/mL)” in assay [12]; “A (A: <8 μg/mL)” in assay [13]; “A (A: <8 μg/mL)” in [14]. Besides, the “The minimum concentration of test compounds combined with ceftazidime (8 μg/mL) for bacteriostasis” value in assay [15] and in [16] was “A (A: <8 μg/mL)” throughout.
Consider `CNC1(Cc2nnc([C@@H]3CC4(CC4)[C@@H]4CN3C(=O)N4OS(=O)(=O)O)o2)CC1` [Example 22, (1R,4S)-4-(5-((1-(methylamino)cyclopropyl)methyl)-1,3,4-oxadiazol-2-yl)-6-oxo-5,7-diazaspiro[bicyclo[3.2.1]octane-2,1′-cyclopropan]-7-yl sulfate], for which the “The minimum concentration of test compounds combined with imipenem (4 μg/mL) for bacteriostasis” value in assay [1] is “A (A: <8 μg/mL)”; in [2] it was “A (A: <8 μg/mL)”; in assay [3], “C (C: 16-128 μg/mL)”; in [4], “C (C: 16-128 μg/mL)”; in [5] it was “A (A: <8 μg/mL)”; in [6] it was “A (A: <8 μg/mL)”. Besides, the “The minimum concentration of test compounds combined with imipenem (4 μg/mL) for bacteriostasis” value in assay [7] and in assay [8] was “A (A: <8 μg/mL)” each time. Also, the “The minimum concentration of test compounds combined with ceftazidime (8 μg/mL) for bacteriostasis” value in assay [9] is listed as “B (B: 8-16 μg/mL)”; in assay [10], “A (A: <8 μg/mL)”; in [11], “C (C: 16-128 μg/mL)”; in assay [12], “C (C: 16-128 μg/mL)”; in assay [13], “B (B: 8-16 μg/mL)”; in assay [14], “B (B: 8-16 μg/mL)”. In addition, the “The minimum concentration of test compounds combined with ceftazidime (8 μg/mL) for bacteriostasis” value is listed as “C (C: 16-128 μg/mL)” in assay [15] and “A (A: <8 μg/mL)” in assay [16].
